Test results reported in US8969516B2, “Method of hydrolysis of peptide bond” (priority 2006, dated 2015).

Assay: MALDI-TOF screening of Ni^2+ dependent hydrolysis in a combinatorial peptide library
Format: physicochemical
Details: Ni^2+ 2 mM, pH 8.2, 10 mM Tris, score=24/tm
In short: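 MALDI-TOF read-out: appearance of Ser/Thr-X-His-Z-Lys-Phe-Leu-NH2 product signals, plus loss of substrate signals, checked by eye at 2, 4, 6, 8 h. Conditions: 1 mM peptide mixture, 2 mM Ni2+, 10 mM Tris pH 8.2, 37 or 45 °C.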

[1] = CH3CO-Gly-Ala-Ser-X-His-Z-Lys-Phe-Leu-NH2 library, 37° C.
[2] = CH3CO-Gly-Ala-Ser-X-His-Z-Lys-Phe-Leu-NH2 library, 45° C.
[3] = CH3CO-Gly-Ala-Thr-X-His-Z-Lys-Phe-Leu-NH2 library, 37° C.
[4] = CH3CO-Gly-Ala-Thr-X-His-Z-Lys-Phe-Leu-NH2 library, 45° C.

For Ac-GASWHHKFL-NH2 [SWHH], the “hydrolysis score from MALDI-TOF screening” value (shortened to “hydrolysis score”) [1] was 4 (a score of 4 for detection at 6 hours) and the “hydrolysis score” value [2] was 3 (a score of 3 for detection at 8 hours).
In the case of Ac-GASWHIKFL-NH2 [SWHI], the “hydrolysis score” value [1] was 6 (a score of 6 for detection at 4 hours) and the “hydrolysis score” value [2] was 12 (a score of 12, if it was seen to be partially hydrolysed at 2 hours).
With Ac-GASWHKKFL-NH2 [SWHK] the “hydrolysis score” value [1] was 4 (a score of 4 for detection at 6 hours) and the “hydrolysis score” value [2] was 12 (a score of 12, if it was seen to be partially hydrolysed at 2 hours).
For Ac-GASWHLKFL-NH2 [SWHL], the “hydrolysis score” value [1] was 6 (a score of 6 for detection at 4 hours) and the “hydrolysis score” value [2] was 12 (a score of 12, if it was seen to be partially hydrolysed at 2 hours).
With Ac-GASWHMKFL-NH2 [SWHM] the “hydrolysis score” value [1] was 0 (a score of 0 if no trace of the product of hydrolysis was seen after 8 hours of incubation) and the “hydrolysis score” value [2] was 3 (a score of 3 for detection at 8 hours).
With Ac-GASWHNKFL-NH2 [SWHN] the “hydrolysis score” value [1] was 0 (a score of 0 if no trace of the product of hydrolysis was seen after 8 hours of incubation) and the “hydrolysis score” value [2] was 0 (a score of 0 if no trace of the product of hydrolysis was seen after 8 hours of incubation).
In the case of Ac-GASWHPKFL-NH2 [SWHP], the “hydrolysis score” value [1] was 0 (a score of 0 if no trace of the product of hydrolysis was seen after 8 hours of incubation) and the “hydrolysis score” value [2] was 0 (a score of 0 if no trace of the product of hydrolysis was seen after 8 hours of incubation).
In the case of Ac-GASWHQKFL-NH2 [SWHQ], the “hydrolysis score” value [1] was 0 (a score of 0 if no trace of the product of hydrolysis was seen after 8 hours of incubation) and the “hydrolysis score” value [2] was 0 (a score of 0 if no trace of the product of hydrolysis was seen after 8 hours of incubation).
For Ac-GASWHRKFL-NH2 [SWHR], the “hydrolysis score” value [1] was 3 (a score of 3 for detection at 8 hours) and the “hydrolysis score” value [2] was 6 (a score of 6 for detection at 4 hours).
For Ac-GASWHSKFL-NH2 [SWHS], the “hydrolysis score” value [1] was 0 (a score of 0 if no trace of the product of hydrolysis was seen after 8 hours of incubation) and the “hydrolysis score” value [2] was 0 (a score of 0 if no trace of the product of hydrolysis was seen after 8 hours of incubation).
In the case of Ac-GASWHTKFL-NH2 [SWHT], the “hydrolysis score” value [1] was 0 (a score of 0 if no trace of the product of hydrolysis was seen after 8 hours of incubation) and the “hydrolysis score” value [2] was 0 (a score of 0 if no trace of the product of hydrolysis was seen after 8 hours of incubation).
In the case of Ac-GASWHVKFL-NH2 [SWHV], the “hydrolysis score” value [1] was 3 (a score of 3 for detection at 8 hours) and the “hydrolysis score” value [2] was 12 (a score of 12, if it was seen to be partially hydrolysed at 2 hours).
With Ac-GASWHWKFL-NH2 [SWHW] the “hydrolysis score” value [1] was 4 (a score of 4 for detection at 6 hours) and the “hydrolysis score” value [2] was 6 (a score of 6 for detection at 4 hours).
With Ac-GASWHYKFL-NH2 [SWHY] the “hydrolysis score” value [1] was 0 (a score of 0 if no trace of the product of hydrolysis was seen after 8 hours of incubation) and the “hydrolysis score” value [2] was 6 (a score of 6 for detection at 4 hours).
For Ac-GASYHAKFL-NH2 [SYHA], the “hydrolysis score” value [1] was 0 (a score of 0 if no trace of the product of hydrolysis was seen after 8 hours of incubation) and the “hydrolysis score” value [2] was 0 (a score of 0 if no trace of the product of hydrolysis was seen after 8 hours of incubation).
With Ac-GASYHDKFL-NH2 [SYHD] the “hydrolysis score” value [1] was 0 (a score of 0 if no trace of the product of hydrolysis was seen after 8 hours of incubation) and the “hydrolysis score” value [2] was 0 (a score of 0 if no trace of the product of hydrolysis was seen after 8 hours of incubation).
For Ac-GASYHEKFL-NH2 [SYHE], the “hydrolysis score” value [1] was 0 (a score of 0 if no trace of the product of hydrolysis was seen after 8 hours of incubation) and the “hydrolysis score” value [2] was 0 (a score of 0 if no trace of the product of hydrolysis was seen after 8 hours of incubation).
With Ac-GASYHFKFL-NH2 [SYHF] the “hydrolysis score” value [1] was 3 (a score of 3 for detection at 8 hours) and the “hydrolysis score” value [2] was 4 (a score of 4 for detection at 6 hours).
With Ac-GASYHGKFL-NH2 [SYHG] the “hydrolysis score” value [1] was 0 (a score of 0 if no trace of the product of hydrolysis was seen after 8 hours of incubation) and the “hydrolysis score” value [2] was 0 (a score of 0 if no trace of the product of hydrolysis was seen after 8 hours of incubation).
With Ac-GASYHHKFL-NH2 [SYHH] the “hydrolysis score” value [1] was 4 (a score of 4 for detection at 6 hours) and the “hydrolysis score” value [2] was 4 (a score of 4 for detection at 6 hours).
In the case of Ac-GASYHIKFL-NH2 [SYHI], the “hydrolysis score” value [1] was 4 (a score of 4 for detection at 6 hours) and the “hydrolysis score” value [2] was 6 (a score of 6 for detection at 4 hours).
For Ac-GASYHKKFL-NH2 [SYHK], the “hydrolysis score” value [1] was 4 (a score of 4 for detection at 6 hours) and the “hydrolysis score” value [2] was 6 (a score of 6 for detection at 4 hours).
For Ac-GASYHLKFL-NH2 [SYHL], the “hydrolysis score” value [1] was 4 (a score of 4 for detection at 6 hours) and the “hydrolysis score” value [2] was 6 (a score of 6 for detection at 4 hours).
In the case of Ac-GASYHMKFL-NH2 [SYHM], the “hydrolysis score” value [1] was 0 (a score of 0 if no trace of the product of hydrolysis was seen after 8 hours of incubation) and the “hydrolysis score” value [2] was 0 (a score of 0 if no trace of the product of hydrolysis was seen after 8 hours of incubation).
In the case of Ac-GASYHNKFL-NH2 [SYHN], the “hydrolysis score” value [1] was 0 (a score of 0 if no trace of the product of hydrolysis was seen after 8 hours of incubation) and the “hydrolysis score” value [2] was 0 (a score of 0 if no trace of the product of hydrolysis was seen after 8 hours of incubation).
In the case of Ac-GASYHPKFL-NH2 [SYHP], the “hydrolysis score” value [1] was 0 (a score of 0 if no trace of the product of hydrolysis was seen after 8 hours of incubation) and the “hydrolysis score” value [2] was 0 (a score of 0 if no trace of the product of hydrolysis was seen after 8 hours of incubation).
In the case of Ac-GASYHQKFL-NH2 [SYHQ], the “hydrolysis score” value [1] was 0 (a score of 0 if no trace of the product of hydrolysis was seen after 8 hours of incubation) and the “hydrolysis score” value [2] was 0 (a score of 0 if no trace of the product of hydrolysis was seen after 8 hours of incubation).
For Ac-GASYHRKFL-NH2 [SYHR], the “hydrolysis score” value [1] was 4 (a score of 4 for detection at 6 hours) and the “hydrolysis score” value [2] was 6 (a score of 6 for detection at 4 hours).
For Ac-GASYHSKFL-NH2 [SYHS], the “hydrolysis score” value [1] was 0 (a score of 0 if no trace of the product of hydrolysis was seen after 8 hours of incubation) and the “hydrolysis score” value [2] was 0 (a score of 0 if no trace of the product of hydrolysis was seen after 8 hours of incubation).
For Ac-GASYHTKFL-NH2 [SYHT], the “hydrolysis score” value [1] was 0 (a score of 0 if no trace of the product of hydrolysis was seen after 8 hours of incubation) and the “hydrolysis score” value [2] was 0 (a score of 0 if no trace of the product of hydrolysis was seen after 8 hours of incubation).
In the case of Ac-GASYHVKFL-NH2 [SYHV], the “hydrolysis score” value [1] was 6 (a score of 6 for detection at 4 hours) and the “hydrolysis score” value [2] was 4 (a score of 4 for detection at 6 hours).
In the case of Ac-GASYHWKFL-NH2 [SYHW], the “hydrolysis score” value [1] was 6 (a score of 6 for detection at 4 hours) and the “hydrolysis score” value [2] was 6 (a score of 6 for detection at 4 hours).
For Ac-GASYHYKFL-NH2 [SYHY], the “hydrolysis score” value [1] was 3 (a score of 3 for detection at 8 hours) and the “hydrolysis score” value [2] was 4 (a score of 4 for detection at 6 hours).
With Ac-GATAHAKFL-NH2 [TAHA] the “hydrolysis score” value [3] was 0 (a score of 0 if no trace of the product of hydrolysis was seen after 8 hours of incubation) and the “hydrolysis score” value [4] was 0 (a score of 0 if no trace of the product of hydrolysis was seen after 8 hours of incubation).
With Ac-GATAHDKFL-NH2 [TAHD] the “hydrolysis score” value [3] was 0 (a score of 0 if no trace of the product of hydrolysis was seen after 8 hours of incubation) and the “hydrolysis score” value [4] was 0 (a score of 0 if no trace of the product of hydrolysis was seen after 8 hours of incubation).
In the case of Ac-GATAHFKFL-NH2 [TAHF], the “hydrolysis score” value [3] was 0 (a score of 0 if no trace of the product of hydrolysis was seen after 8 hours of incubation) and the “hydrolysis score” value [4] was 0 (a score of 0 if no trace of the product of hydrolysis was seen after 8 hours of incubation).
With Ac-GATAHGKFL-NH2 [TAHG] the “hydrolysis score” value [3] was 0 (a score of 0 if no trace of the product of hydrolysis was seen after 8 hours of incubation) and the “hydrolysis score” value [4] was 0 (a score of 0 if no trace of the product of hydrolysis was seen after 8 hours of incubation).
For Ac-GATAHHKFL-NH2 [TAHH], the “hydrolysis score” value [3] was 0 (a score of 0 if no trace of the product of hydrolysis was seen after 8 hours of incubation) and the “hydrolysis score” value [4] was 0 (a score of 0 if no trace of the product of hydrolysis was seen after 8 hours of incubation).
With Ac-GATAHIKFL-NH2 [TAHI] the “hydrolysis score” value [3] was 0 (a score of 0 if no trace of the product of hydrolysis was seen after 8 hours of incubation) and the “hydrolysis score” value [4] was 0 (a score of 0 if no trace of the product of hydrolysis was seen after 8 hours of incubation).
In the case of Ac-GATAHKKFL-NH2 [TAHK], the “hydrolysis score” value [3] was 0 (a score of 0 if no trace of the product of hydrolysis was seen after 8 hours of incubation) and the “hydrolysis score” value [4] was 0 (a score of 0 if no trace of the product of hydrolysis was seen after 8 hours of incubation).
